Assay results as given in patent US10421750B2, “Substituted morpholine derivatives having activity against pain” (ESTEVE PHARMACEUTICALS, S.A., priority 2015, dated 2019).

Biological target: human σ1 receptor (Homo sapiens (Human), UniProt Q99720)
Experiment: Human σ1 receptor radioligand assay ([3H](+)-pentazocine, transfected HEK-293 membranes)
Conditions: binding to the σ1 receptor expressed as Ki, [3H](+)-pentazocine 5 nM
Description: Human σ1 Receptor Radioligand Assay
To investigate binding properties of test compounds to human σ1 receptor, transfected HEK-293 membranes and [^3H](+)-pentazocine (Perkin Elmer, NET-1056), as the radioligand, were used. The assay was carried out with 7 μg of membrane suspension, 5 nM of [^3H](+)-pentazocine in either absence or presence of either buffer or 10 μM Haloperidol for total and non-specific binding, respectively. Binding buffer contained Tris-HCl 50 mM at pH 8. Plates were incubated at 37° C. for 120 minutes. After the incubation period, the reaction mix was then transferred to MultiScreen HTS, FC plates (Millipore), filtered and plates were washed 3 times with ice-cold 10 mM Tris-HCL (pH7.4). Filters were dried and counted at approximately 40% efficiency in a MicroBeta scintillation counter (Perkin-Elmer) using EcoScint liquid scintillation cocktail

Sequence of human σ1 receptor (Q99720 whole entry): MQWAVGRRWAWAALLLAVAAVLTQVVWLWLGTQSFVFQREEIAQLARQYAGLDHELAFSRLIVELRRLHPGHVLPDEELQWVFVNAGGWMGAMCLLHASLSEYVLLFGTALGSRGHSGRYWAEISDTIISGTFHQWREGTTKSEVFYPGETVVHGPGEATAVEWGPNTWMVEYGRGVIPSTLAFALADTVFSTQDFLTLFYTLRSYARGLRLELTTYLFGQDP

| Ki [nM] | Structure (SMILES) |
| --- | --- |
| < 100 | COc1ccc(CN2CCOC(C3CCN(Cc4ccccc4)CC3)C2)cc1 (stereo not drawn) [Example 49, 2-(1-benzylpiperidin-4-yl)-4-(4-methoxybenzyl)morpholine] |
| < 100 | CCN1CCOC(C2CCN(Cc3ccccc3)CC2)C1 (stereo not drawn) [Example 50, 2-(1-benzylpiperidin-4-yl)-4-ethylmorpholine] |
| < 100 | CC(C)CCN1CCC(C2CN(C(=O)c3ccccc3)CC3(CC3)O2)CC1 (stereo not drawn) [Example 51, (5-(1-Isopentylpiperidin-4-yl)-4-oxa-7-azaspiro[2.5]octan-7-yl)(phenyl)methanone] |
